Legend:
[1] = system: purified bovine brain tubulin; assay: Fluorescence-based tubulin polymerization assay; type: biochemical; settings: 10 µM, cell-free
[2] = system: caspase-3/7 activity in HT29 cells; assay: Caspase 3/7 activity assay; type: cell-based, human; settings: HT29, 1.25 – 5 µM, 24 h
[3] = system: Akt (phospho-Akt and total Akt) in HT29 cells; assay: Western analysis of phospho-Akt and total Akt; type: cell-based, human; settings: 24 h, Western blot; for effect on Akt expression and phosphorylation, 1 µM: HT29, 1 µM; for effect on Akt expression and phosphorylation: HT29, 1 or 2 µM (not specified)
HT29 cells = assay: TUNEL assay; type: cell-based, human; settings: HT29, 5 µM, 48 h

Structure (SMILES): CC(=O)O[C@H]1C(=O)[C@@]2(C)[C@H]([C@H](OC(=O)c3ccccc3)[C@]3(O)C[C@H](OC(=O)[C@H](O)[C@@H](NC(=O)c4ccccc4)c4ccccc4)C(C)=C1C3(C)C)[C@]1(OC(C)=O)CO[C@@H]1C[C@@H]2O [paclitaxel]
- effect on microtubule formation versus vehicle control [1]: stabilized microtubules

Structure (SMILES): CC[C@]1(O)C[C@@H]2CN(CCc3c([nH]c4ccccc34)[C@@](C(=O)OC)(c3cc4c(cc3OC)N(C)[C@H]3[C@@](O)(C(=O)OC)[C@H](OC(C)=O)[C@]5(CC)C=CCN6CC[C@]43[C@@H]65)C2)C1.O=S(=O)(O)O [Vinblastine, vinblastine sulfate]
- effect on microtubule formation versus vehicle control [1]: strongly inhibited microtubule formation

Structure (SMILES): N#C[Se]CCCN1C(=O)C(=O)c2cc(Br)cc(Br)c21 [Compound 5, 5,7-Dibromo-N-(3’-selenocyanatopropyl)isatin]
- caspase-3/7 activity relative to DMSO vehicle treated cells [2]: significant dose dependent increases in caspase-3/7 activity

Structure (SMILES): O=C1C(=O)N(Cc2ccc(CN=C=S)cc2)c2c(Br)cc(Br)cc21 [Compound 13, 5,7-Dibromo-N-(p-isothiocyanatomethylbenzyl)isatin]
- effect on Akt expression and phosphorylation, 1 µM [3]: reduced Akt protein levels and strongly suppressed the phosphorylation of Akt
- effect on Akt expression and phosphorylation [3]: Akt levels were reduced but the phosphorylation was virtually eliminated
- caspase-3/7 activity relative to DMSO vehicle treated cells [2]: significant dose dependent increases in caspase-3/7 activity

Structure (SMILES): O=C1C(=O)N(CCCN=C=S)c2c(Br)cc(Br)cc21 [Compound 6, 5,7-Dibromo-N-(3’-isothiocyanatopropyl)isatin]
- TUNEL staining (DNA fragmentation) (HT29 cells): significant number of TUNEL-positive colon cancer cells
- effect on Akt expression and phosphorylation, 1 µM [3]: very little effect on either expression or phosphorylation of Akt
- effect on Akt expression and phosphorylation, 2 µM ([3]; HT29, 2 µM): both levels and phosphorylation state of Akt were reduced
- caspase-3/7 activity relative to DMSO vehicle treated cells [2]: significant dose dependent increases in caspase-3/7 activity

Structure (SMILES): N#CSCc1ccc(CN2C(=O)C(=O)c3cc(Br)cc(Br)c32)cc1 [Compound 11, 5,7-Dibromo-N-(p-thiocyanomethylbenzyl)isatin]
- TUNEL staining (DNA fragmentation) (HT29 cells): significant number of TUNEL-positive colon cancer cells
- effect on Akt expression and phosphorylation, 1 µM [3]: reduced Akt protein levels and strongly suppressed the phosphorylation of Akt
- effect on Akt expression and phosphorylation [3]: Akt levels were reduced but the phosphorylation was virtually eliminated
- inhibition of the rate of microtubule polymerization ([1]; 1 h at 37 °C): about 71%
- caspase-3/7 activity relative to DMSO vehicle treated cells [2]: significant dose dependent increases in caspase-3/7 activity
